As usually defined, the inhibition is the share of the control response that was lost under treatment.

Some results are limits rather than exact numbers.

Format in all cases: biochemical
The target in one experiment is Trk B (Homo sapiens, UniProt Q16620). Description: HotSpot kinase assay: Trk B. As to conditions: 100 nM compound; for inhibition at 0.1 µM: read-out: % Enzyme Inhibition @ 100 nM Trk B. As to the method:
(§1) Each compound was tested at a concentration of 0.1 μM in single duplicate mode against the 3 kinases. Compounds were prepared as 10 mM stock solutions in DMSO prior to use in the assay. […] IC50 values and curve fits were obtained using Prism (GraphPad Software).
(§2) The screening was performed using the “HotSpot” assay platform. The assay measures the conversion of a peptide substrate to ^33P-labelled phosphorylated product. Briefly, specific kinase/substrate pairs along with required cofactors were prepared in reaction buffer. Specifically, the substrate was prepared in reaction buffer (20 mM Hepes, pH 7.5; 10 mM MgCl2; 1 mM EGTA; 0.02% Brij35; 0.02 mg/mL BSA; 0.1 mM Na3VO4; 2 mM DTT; 1% DMSO), followed by delivery of any required cofactor to the resulting substrate solution. The corresponding kinase was delivered into the substrate solution and the reaction mixture was mixed gently. Compound was delivered into the reaction mixture, followed 15-20 minutes later by addition of a mixture of ATP (Sigma, St. Louis Mo.) and ^33P ATP (specific activity 0.01 μCi/μL final; Perkin Elmer, Waltham, Mass.) to a final concentration of 10 μM-30 μM to initiate the reaction. […] The percent of enzyme inhibition was calculated based on the percent of remaining kinase activity.

The target in another experiment is Trk C (Homo sapiens, UniProt Q16288). In words: HotSpot kinase assay: Trk C. As to conditions: 100 nM compound, HotSpot; for inhibition at 0.1 µM: read-out: % Enzyme Inhibition @ 100 nM Trk C. As to the method:
as §1, §2
Kinase assays were performed using additional compounds against a panel of 4 kinases: AXL; c-Met; c-Mer; and Trk C. Each compound was tested at a concentration of […] in single duplicate mode against the 4 kinases. Compounds were prepared as 10 mM stock solutions in DMSO prior to use in the assay. […] IC50 values and curve fits were obtained using Prism (GraphPad Software).

For another experiment, the target named is Trk A (Homo sapiens, UniProt P04629). In words: HotSpot kinase assay: Trk A. As to conditions: 100 nM compound; for inhibition at 0.1 µM: read-out: % Enzyme Inhibition @ 100 nM Trk A. As to the method:
Kinase assays were performed using additional compounds against a panel of 3 kinases: Trk A; Trk B; and Trk C. Each compound was tested at a concentration of 0.1 μM in single duplicate mode against the 3 kinases. Compounds were prepared as 10 mM stock solutions in DMSO prior to use in the assay. […] IC50 values and curve fits were obtained using Prism (GraphPad Software). […]
The screening was performed using the “HotSpot” assay platform. The assay measures the conversion of a peptide substrate to ^33P-labelled phosphorylated product. Briefly, specific kinase/substrate pairs along with required cofactors were prepared in reaction buffer. Specifically, the substrate was prepared in reaction buffer (20 mM Hepes, pH 7.5; 10 mM MgCl2; 1 mM EGTA; 0.02% Brij35; 0.02 mg/mL BSA; 0.1 mM Na3VO4; 2 mM DTT; 1% DMSO), followed by delivery of any required cofactor to the resulting substrate solution. The corresponding kinase was delivered into the substrate solution and the reaction mixture was mixed gently. Compound was delivered into the reaction mixture, followed 15-20 minutes later by addition of a mixture of ATP (Sigma, St. Louis Mo.) and ^33P ATP (specific activity 0.01 μCi/μL final; Perkin Elmer, Waltham, Mass.) to a final concentration of 10 μM-30 μM to initiate the reaction. Reactions were carried out at room temperature for 120 minutes, followed by spotting of the reactions onto P81 ion exchange filter paper (Whatman #3698-915; Whatman Inc., Piscataway, N.J.). Unbound phosphate was removed by extensive washing of filters in 0.75% phosphoric acid. […] The percent of enzyme inhibition was calculated based on the percent of remaining kinase activity.

In another experiment the target is T1, IGF-1R (Homo sapiens, UniProt P08069).
T1 construct: purchased Millipore 14-802
T1 sequence (P08069 31-1367): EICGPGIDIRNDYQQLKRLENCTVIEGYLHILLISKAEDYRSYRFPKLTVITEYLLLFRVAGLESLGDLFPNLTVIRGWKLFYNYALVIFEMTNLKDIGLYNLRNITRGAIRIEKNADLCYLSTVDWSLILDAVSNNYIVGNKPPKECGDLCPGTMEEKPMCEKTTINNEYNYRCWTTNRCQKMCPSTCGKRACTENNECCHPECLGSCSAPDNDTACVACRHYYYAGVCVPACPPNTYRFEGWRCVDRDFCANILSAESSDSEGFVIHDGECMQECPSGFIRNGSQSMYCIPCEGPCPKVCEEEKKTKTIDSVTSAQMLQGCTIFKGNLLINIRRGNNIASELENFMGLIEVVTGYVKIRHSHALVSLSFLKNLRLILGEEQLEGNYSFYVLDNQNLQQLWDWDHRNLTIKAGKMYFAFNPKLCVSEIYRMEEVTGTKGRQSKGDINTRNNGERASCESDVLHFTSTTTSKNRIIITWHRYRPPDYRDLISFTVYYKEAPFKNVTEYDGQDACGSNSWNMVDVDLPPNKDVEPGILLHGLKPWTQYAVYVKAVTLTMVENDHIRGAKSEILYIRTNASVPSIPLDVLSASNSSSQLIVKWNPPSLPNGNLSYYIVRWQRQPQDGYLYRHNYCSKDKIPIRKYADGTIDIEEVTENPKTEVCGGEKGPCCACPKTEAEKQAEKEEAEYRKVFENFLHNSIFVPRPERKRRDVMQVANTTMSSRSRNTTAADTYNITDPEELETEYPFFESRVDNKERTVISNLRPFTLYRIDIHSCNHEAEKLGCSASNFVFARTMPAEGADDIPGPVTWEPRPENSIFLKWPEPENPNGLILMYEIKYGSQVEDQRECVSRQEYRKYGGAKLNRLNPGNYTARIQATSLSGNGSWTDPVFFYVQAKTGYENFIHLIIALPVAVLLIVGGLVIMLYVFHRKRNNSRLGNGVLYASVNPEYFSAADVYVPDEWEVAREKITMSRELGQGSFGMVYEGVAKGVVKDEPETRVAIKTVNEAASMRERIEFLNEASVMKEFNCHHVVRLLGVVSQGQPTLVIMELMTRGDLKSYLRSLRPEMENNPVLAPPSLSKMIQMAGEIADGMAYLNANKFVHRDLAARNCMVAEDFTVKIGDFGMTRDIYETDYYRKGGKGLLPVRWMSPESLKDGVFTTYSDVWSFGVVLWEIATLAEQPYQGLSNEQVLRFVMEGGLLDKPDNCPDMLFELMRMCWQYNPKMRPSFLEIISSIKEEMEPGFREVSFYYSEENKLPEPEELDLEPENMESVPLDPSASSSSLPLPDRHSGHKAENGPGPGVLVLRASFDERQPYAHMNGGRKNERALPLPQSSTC
In words: In vitro IGF-1R enzymatic assay (ADP-Glo kinase assay). As to conditions: activated IGF-1R, 1 μM, in duplicate; read-out: inhibition of binding. As for the experimental part:
IC50 values of the compounds of the invention against IGF-1R and IR were measured in vitro using an ADP-Glo kinase assay Kit (Promega). […] Kinase reactions in both assays were conducted at 30° C. for 20 min with increasing concentrations of compounds of the invention.
Additional compounds of the invention were screened against activated IGF-1R.
For orientation: ADP-Glo turns the ADP formed in a reaction into a luminescent signal.

A further experiment concerns the target T2, IR (Homo sapiens, UniProt P06213).
T2 construct: purchased Millipore 14-803
In words: In vitro IR enzymatic assay (ADP-Glo kinase assay). As to conditions: activated IR, in duplicate, read-out: inhibition of binding.

Chain of Trk A (P04629 33-796): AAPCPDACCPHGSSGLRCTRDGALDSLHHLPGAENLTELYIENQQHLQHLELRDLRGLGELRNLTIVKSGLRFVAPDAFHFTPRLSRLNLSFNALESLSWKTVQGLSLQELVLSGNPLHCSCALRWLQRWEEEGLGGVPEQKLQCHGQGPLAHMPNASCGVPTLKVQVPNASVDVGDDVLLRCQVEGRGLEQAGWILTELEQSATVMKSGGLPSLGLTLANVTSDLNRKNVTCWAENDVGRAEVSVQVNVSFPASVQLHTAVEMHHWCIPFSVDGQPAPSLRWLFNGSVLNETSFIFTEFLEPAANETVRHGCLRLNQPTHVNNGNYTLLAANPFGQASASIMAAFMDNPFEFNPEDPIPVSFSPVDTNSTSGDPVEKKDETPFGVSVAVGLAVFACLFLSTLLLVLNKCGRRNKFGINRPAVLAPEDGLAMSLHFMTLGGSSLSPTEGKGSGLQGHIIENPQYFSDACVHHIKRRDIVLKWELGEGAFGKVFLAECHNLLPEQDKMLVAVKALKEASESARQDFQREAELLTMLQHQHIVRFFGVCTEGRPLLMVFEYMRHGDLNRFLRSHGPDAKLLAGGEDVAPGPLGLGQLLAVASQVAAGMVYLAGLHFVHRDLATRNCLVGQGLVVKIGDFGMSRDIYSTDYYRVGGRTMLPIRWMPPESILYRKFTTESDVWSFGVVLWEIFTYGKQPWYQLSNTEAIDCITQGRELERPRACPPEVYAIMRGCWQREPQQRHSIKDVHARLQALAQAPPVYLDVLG
Chain of Trk C (Q16288 32-839): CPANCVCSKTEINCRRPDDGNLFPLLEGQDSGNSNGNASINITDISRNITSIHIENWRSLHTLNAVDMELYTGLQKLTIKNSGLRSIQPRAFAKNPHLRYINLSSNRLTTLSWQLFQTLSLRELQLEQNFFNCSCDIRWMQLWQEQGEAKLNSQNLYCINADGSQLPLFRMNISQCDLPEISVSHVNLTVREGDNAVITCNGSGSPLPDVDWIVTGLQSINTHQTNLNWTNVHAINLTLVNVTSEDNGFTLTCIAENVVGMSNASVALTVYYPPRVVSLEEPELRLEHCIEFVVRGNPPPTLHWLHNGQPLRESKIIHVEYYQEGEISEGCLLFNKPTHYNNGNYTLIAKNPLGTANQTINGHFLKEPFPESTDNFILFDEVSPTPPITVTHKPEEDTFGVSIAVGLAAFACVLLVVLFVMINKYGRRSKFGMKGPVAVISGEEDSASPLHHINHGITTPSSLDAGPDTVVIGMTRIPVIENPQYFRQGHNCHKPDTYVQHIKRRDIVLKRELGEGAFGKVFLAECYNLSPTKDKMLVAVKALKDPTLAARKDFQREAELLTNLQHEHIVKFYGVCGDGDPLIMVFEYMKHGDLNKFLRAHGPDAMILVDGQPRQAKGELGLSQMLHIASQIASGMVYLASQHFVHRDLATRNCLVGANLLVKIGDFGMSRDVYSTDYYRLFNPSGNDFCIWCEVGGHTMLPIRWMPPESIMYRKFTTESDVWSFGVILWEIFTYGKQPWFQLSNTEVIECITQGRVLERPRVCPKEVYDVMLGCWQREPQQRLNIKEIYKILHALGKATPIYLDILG
T2 sequence (P06213 28-1382): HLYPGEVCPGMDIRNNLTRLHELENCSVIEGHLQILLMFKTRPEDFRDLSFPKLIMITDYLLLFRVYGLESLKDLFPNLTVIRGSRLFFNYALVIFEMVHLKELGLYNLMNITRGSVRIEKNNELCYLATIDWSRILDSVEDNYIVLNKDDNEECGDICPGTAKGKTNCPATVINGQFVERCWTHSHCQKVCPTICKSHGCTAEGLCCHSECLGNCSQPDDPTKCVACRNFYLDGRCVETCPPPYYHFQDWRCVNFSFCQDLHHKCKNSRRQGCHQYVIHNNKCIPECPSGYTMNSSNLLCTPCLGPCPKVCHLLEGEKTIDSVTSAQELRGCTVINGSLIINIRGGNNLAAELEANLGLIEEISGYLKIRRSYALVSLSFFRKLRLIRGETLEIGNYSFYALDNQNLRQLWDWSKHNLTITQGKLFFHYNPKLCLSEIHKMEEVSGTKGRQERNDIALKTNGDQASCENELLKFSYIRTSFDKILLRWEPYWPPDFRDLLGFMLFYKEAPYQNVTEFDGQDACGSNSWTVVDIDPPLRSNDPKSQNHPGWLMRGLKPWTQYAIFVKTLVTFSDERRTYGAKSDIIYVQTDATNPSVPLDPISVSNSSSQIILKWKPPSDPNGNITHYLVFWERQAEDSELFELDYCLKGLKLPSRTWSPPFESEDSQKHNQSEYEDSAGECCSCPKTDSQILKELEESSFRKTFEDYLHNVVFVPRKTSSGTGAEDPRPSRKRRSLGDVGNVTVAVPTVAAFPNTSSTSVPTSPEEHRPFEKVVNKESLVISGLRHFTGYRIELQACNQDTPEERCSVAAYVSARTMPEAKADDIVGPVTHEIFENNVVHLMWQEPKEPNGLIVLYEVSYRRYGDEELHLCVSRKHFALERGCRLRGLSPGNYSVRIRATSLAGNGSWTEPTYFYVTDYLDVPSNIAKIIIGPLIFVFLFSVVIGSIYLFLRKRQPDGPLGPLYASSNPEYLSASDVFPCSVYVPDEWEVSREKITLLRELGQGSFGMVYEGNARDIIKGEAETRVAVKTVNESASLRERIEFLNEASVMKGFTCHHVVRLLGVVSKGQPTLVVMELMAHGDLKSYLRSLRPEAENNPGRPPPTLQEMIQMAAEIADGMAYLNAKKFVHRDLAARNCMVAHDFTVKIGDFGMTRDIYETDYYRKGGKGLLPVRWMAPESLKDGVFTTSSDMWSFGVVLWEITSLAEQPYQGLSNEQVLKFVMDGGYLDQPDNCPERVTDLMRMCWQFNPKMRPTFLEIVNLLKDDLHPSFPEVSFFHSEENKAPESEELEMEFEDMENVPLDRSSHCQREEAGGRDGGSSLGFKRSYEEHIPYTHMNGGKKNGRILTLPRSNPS
Chain of Trk B (Q16620 32-822): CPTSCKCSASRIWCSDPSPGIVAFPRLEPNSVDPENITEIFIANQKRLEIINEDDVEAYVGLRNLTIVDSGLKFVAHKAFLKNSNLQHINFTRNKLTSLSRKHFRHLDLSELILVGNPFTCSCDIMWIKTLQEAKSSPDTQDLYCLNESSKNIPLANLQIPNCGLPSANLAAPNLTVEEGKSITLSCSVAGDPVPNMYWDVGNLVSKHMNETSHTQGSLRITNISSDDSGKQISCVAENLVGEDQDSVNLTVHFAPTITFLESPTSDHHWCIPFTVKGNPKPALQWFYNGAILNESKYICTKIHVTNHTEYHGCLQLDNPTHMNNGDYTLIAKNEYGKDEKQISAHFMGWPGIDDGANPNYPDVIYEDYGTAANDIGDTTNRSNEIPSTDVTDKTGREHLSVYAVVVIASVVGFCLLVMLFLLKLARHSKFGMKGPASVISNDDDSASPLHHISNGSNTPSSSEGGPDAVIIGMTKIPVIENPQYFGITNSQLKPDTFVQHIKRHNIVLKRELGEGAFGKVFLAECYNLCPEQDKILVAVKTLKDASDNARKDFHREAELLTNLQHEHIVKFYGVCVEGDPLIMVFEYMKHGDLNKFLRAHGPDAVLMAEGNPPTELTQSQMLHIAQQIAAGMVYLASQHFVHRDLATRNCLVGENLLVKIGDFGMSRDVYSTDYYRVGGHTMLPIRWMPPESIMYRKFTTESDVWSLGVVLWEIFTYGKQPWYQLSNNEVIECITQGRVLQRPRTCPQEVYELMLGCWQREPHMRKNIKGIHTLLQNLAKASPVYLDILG

Regarding `CN(C)C(=O)C1CCCN1c1nc2c(c(Nc3cc(C4CCCC4)[nH]n3)n1)CCC2` (stereo not shown) [Compound 115a, 1-(4-(5-cyclopentyl-1H-pyrazol-3-ylamino)-6,7-dihydro-5H-cyclopenta[d]pyrimidin-2-yl)-N,N-dimethylpyrrolidine-2-carboxamide], the values for the inhibition at 0.1 µM on Trk B, at Trk C and on Trk A were above 60%, above 60% and below 39%, respectively. Besides, the inhibition at 1 µM at IGF-1R is below 35%; at IR it was at most 40%.

In the case of `O=C(C1CCCN1c1nc2c(c(Nc3cc(C4CCCC4)[nH]n3)n1)CCC2)N1CCCCC1` (stereo not shown) [Compound 111a, (1-(4-(5-cyclopentyl-1H-pyrazol-3-ylamino)-6,7-dihydro-5H-cyclopenta[d]pyrimidin-2-yl)pyrrolidin-2-yl)(piperidin-1-yl)methanone], the inhibition at 0.1 µM was above 60% at Trk B, above 60% on Trk C and 40 to 59% on Trk A. Also, the inhibition at 1 µM on IGF-1R is below 35%; at IR it was at most 40%.

Regarding `CN(C)C(=O)C1CCCN1c1nc2c(c(Nc3cc(C4CCCCC4)[nH]n3)n1)CCC2` (stereo not shown) [Compound 114b, 1-(4-(5-cyclohexyl-1H-pyrazol-3-ylamino)-6,7-dihydro-5H-cyclopenta[d]pyrimidin-2-yl)-N,N-dimethylpyrrolidine-2-carboxamide], the figures for the inhibition at 0.1 µM at Trk B, on Trk C and on Trk A were above 60%, above 60% and below 39%, respectively.

In the case of `O=C(C1CC(O)CN1c1nc2c(c(Nc3cc(C4CCCC4)[nH]n3)n1)CCC2)N1CCCCC1` (stereo not shown) [Compound 108a, (1-(4-(5-cyclopentyl-1H-pyrazol-3-ylamino)-6,7-dihydro-5H-cyclopenta[d]pyrimidin-2-yl)-4-hydroxypyrrolidin-2-yl)(piperidin-1-yl)methanone], the “% Enzyme Inhibition @ 100 nM Trk B” value on Trk B was “+++ (High (60% or higher inhibition, +++))”. Also, the “% Enzyme Inhibition @ 100 nM Trk C” value at Trk C was “+++ (High (60% or higher inhibition, +++))”. Also, at Trk A, the “% Enzyme Inhibition @ 100 nM Trk A” value is “+ (Low (39% or lower inhibition, +))”. Also, the inhibition at 1 µM was below 35% on IGF-1R and at most 40% at IR.

In the case of `CCN(CC)C(=O)C1CCCN1c1nc2c(c(Nc3cc(C4CCCC4)[nH]n3)n1)CCC2` (stereo not shown) [Compound 116a, 1-(4-(5-cyclopenxyl-1H-pyrazol-3-ylamino)-6,7-dihydro-5H-cyclopenta[d]pyrimidin-2-yl)-N,N-diethylpyrrolidine-2-carboxamide], the values for the inhibition at 0.1 µM at Trk B, at Trk C and at Trk A were above 60%, above 60% and below 39%, respectively. The inhibition at 1 µM on IGF-1R is below 35%; at IR it was at most 40%.

As for `O=C(C1CCCN1c1nc2c(c(Nc3cc(C4CCCCC4)[nH]n3)n1)CCC2)N1CCCCC1` (stereo not shown) [Compound 113a, (1-(4-(5-cyclohexyl-1H-pyrazol-3-ylamino)-6,7-dihydro-5H-cyclopenta[d]pyrimidin-2-yl)pyrrolidin-2-yl)(piperidin-1-yl)methanone], the “% Enzyme Inhibition @ 100 nM Trk B” value on Trk B was “+ (Low (39% or lower inhibition, +))”. On Trk C, the “% Enzyme Inhibition @ 100 nM Trk C” value was “++ (Medium (40 to 59% inhibition, ++))”. The “% Enzyme Inhibition @ 100 nM Trk A” value on Trk A is listed as “++ (Medium (40 to 59% inhibition, ++))”. In addition, the figures for the inhibition at 1 µM at IGF-1R and on IR were below 35% and at most 40%, respectively.

Take `O=C(C1CCCN1c1nc2c(c(Nc3cc(C4CCCC4)[nH]n3)n1)CCC2)N1CCCC1` (stereo not shown) [Compound 112a, (1-(4-(5-cyclopentyl-1H-pyrazol-3-ylamino)-6,7-dihydro-5H-cyclopenta[d]pyrimidin-2-yl)pyrrolidin-2-yl)(pyrrolidin-1-yl)methanone]: the inhibition at 0.1 µM at Trk B, on Trk C and at Trk A was above 60% in each case. For the same molecule, the inhibition at 1 µM at IGF-1R is below 35%; at IR it was at most 40%.

Turning to `CC(C)c1cc(Nc2nc(N3CC(O)CC3C(=O)N3CCCCC3)nc3c2CCC3)n[nH]1` (stereo not shown) [Compound 107b, (4-hydroxy-1-(4-(5-isopropyl-1H-pyrazol-3-ylamino)-6,7-dihydro-5H-cyclopenta[d]pyrimidin-2-yl)pyrrolidin-2-yl)(piperidin-1-yl)methanone], the inhibition at 0.1 µM at Trk B and at Trk A was below 39% throughout. At Trk C, the “% Enzyme Inhibition @ 100 nM Trk C” value was “+ (Low (39% or lower inhibition, +))”.

Regarding `CN(C)C(=O)C1CCCN1c1nc2c(c(Nc3cc(C4CCCCC4)[nH]n3)n1)CCC2` (stereo not shown) [Compound 114a, 1-(4-(5-cyclohexyl-1H-pyrazol-3-ylamino)-6,7-dihydro-5H-cyclopenta[d]pyrimidin-2-yl)-N,N-dimethylpyrrolidine-2-carboxamide], the “% Enzyme Inhibition @ 100 nM Trk B” value at Trk B is recorded as “++ (Medium (40 to 59% inhibition, ++))”. The “% Enzyme Inhibition @ 100 nM Trk C” value on Trk C was “++ (Medium (40 to 59% inhibition, ++))”. In addition, on Trk A, the “% Enzyme Inhibition @ 100 nM Trk A” value is “++ (Medium (40 to 59% inhibition, ++))”. For the same molecule, the figures for the inhibition at 1 µM on IGF-1R and on IR were below 35% and at most 40%, respectively.

Regarding `CN(C)C(=O)C1CC(O)CN1c1nc2c(c(Nc3cc(C4CCCC4)[nH]n3)n1)CCC2` (stereo not shown) [Compound 110b, 1-(4-(5-cyclopentyl-1H-pyrazol-3-ylamino)-6,7-dihydro-5H-cyclopenta[d]pyrimidin-2-yl)-4-hydroxy-N,N-dimethylpyrrolidine-2-carboxamide], the inhibition at 0.1 µM at Trk B is below 39%; on Trk C, 40 to 59%; on Trk A, below 39%.

Take `O=C(C1CC(O)CN1c1nc2c(c(Nc3cc(C4CCCC4)[nH]n3)n1)CCC2)N1CCCCC1` (stereo not shown) [Compound 108b, (1-(4-(5-cyclopentyl-1H-pyrazol-3-ylamino)-6,7-dihydro-5H-cyclopenta[d]pyrimidin-2-yl)-4-hydroxypyrrolidin-2-yl)(piperidin-1-yl)methanone]: the inhibition at 0.1 µM at Trk B was 40 to 59%; at Trk C it was above 60%; on Trk A, 40 to 59%.

As to `CC(C)c1cc(Nc2nc(N3CC(O)CC3C(=O)N3CCCCC3)nc3c2CCC3)n[nH]1` (stereo not shown) [Compound 107a, (4-hydroxy-1-(4-(5-isopropyl-1H-pyrazol-3-ylamino)-6,7-dihydro-5H-cyclopenta[d]pyrimidin-2-yl)pyrrolidin-2-yl)(piperidin-1-yl)methanone], on Trk B, the “% Enzyme Inhibition @ 100 nM Trk B” value is recorded as “++ (Medium (40 to 59% inhibition, ++))”. On Trk C, the “% Enzyme Inhibition @ 100 nM Trk C” value is listed as “+++ (High (60% or higher inhibition, +++))”. The “% Enzyme Inhibition @ 100 nM Trk A” value at Trk A was “+ (Low (39% or lower inhibition, +))”. Further, the inhibition at 1 µM is below 35% on IGF-1R and at most 40% at IR.

`O=C(C1CCCN1c1nc2c(c(Nc3cc(C4CCCCC4)[nH]n3)n1)CCC2)N1CCCCC1` (stereo not shown) [Compound 113b, (1-(4-(5-cyclohexyl-1H-pyrazol-3-ylamino)-6,7-dihydro-5H-cyclopenta[d]pyrimidin-2-yl)pyrrolidin-2-yl)(piperidin-1-yl)methanone]: the “% Enzyme Inhibition @ 100 nM Trk B” value at Trk B was “+++ (High (60% or higher inhibition, +++))”. The figures for the inhibition at 0.1 µM on Trk C and on Trk A were above 60% and 40 to 59%, respectively.

These data come from patent US9499519B2, “Fused pyrimidine compounds and use thereof” (Medivation Technologies, Inc., priority 2012, dated 2016).
